Earlier results as cited in patent US20040186084A1, “Triamcinolone formulations and methods for their preparation and use” (Akorn, Inc., priority 2003, published 2004).

solubility in organic solvents (methanol, acetone and ethyle acetate): sparingly soluble | solubility in water (water): relatively insoluble
Structure (SMILES): CC1(C)O[C@@H]2C[C@H]3[C@@H]4CCC5=CC(=O)C=C[C@]5(C)[C@@]4(F)[C@@H](O)C[C@]3(C)[C@]2(C(=O)CO)O1 [triamcinolone acetonide, (11β,16α)-9-fluoro-11,21-dihydroxy-16,17-[1-methylethylidenebis(oxy)]pregna-1,-4-diene-3,20-dione]
